Data reported in PubChem BioAssay (NCI).
Values joined by “and” are separate entries in the source; they are usually repeats but may differ in a detail not shown here. Identical values can stand only once.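 Five compound concentrations were applied to cells in 96-well plates for 48 hours; endpoints were derived by simple linear interpolation of the resulting dose-response curve. The concentration for 50% growth inhibition is given as GI50. Definition used: TGI = concentration required for complete inhibition of growth.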

Tests used:
Assay in all cases: DTP human tumour cell line panel, 48 h
MDA-MB-231 breast = test system: MDA-MB-231 breast
RPMI-8226 leukemia = test system: RPMI-8226 leukemia
T-47D breast = test system: T-47D breast
HOP-62 NSCLC = test system: HOP-62 NSCLC
HL-60(TB) leukemia = test system: HL-60(TB) leukemia
SNB-19 CNS = test system: SNB-19 CNS
HS 578T breast = test system: HS 578T breast
HOP-92 NSCLC = test system: HOP-92 NSCLC
K-562 leukemia = test system: K-562 leukemia
EKVX NSCLC = test system: EKVX NSCLC

Question: How did the GI50 (MDA-MB-231 breast) turn out when `CC(C)(C)OC(=O)N1CC(Cn2cc(C(F)(F)F)c3c(Cl)ncnc32)C1` was run?
Answer: The GI50 was 6.92 µM.

Question: What about the TGI (MDA-MB-231 breast) of the same molecule?
Answer: Its TGI is 23.4 µM.

Question: And the GI50 (RPMI-8226 leukemia)?
Answer: The GI50 was 2.67 µM.

Question: And the TGI (RPMI-8226 leukemia)?
Answer: The TGI was 6.33 µM.

Question: And the GI50 (T-47D breast)?
Answer: Its GI50 is 5.51 µM.

Question: And the TGI (T-47D breast)?
Answer: Its TGI is 27.1 µM.

Question: And the GI50 (HOP-62 NSCLC)?
Answer: Its GI50 is 1.95 µM.

Question: And the TGI (HOP-62 NSCLC)?
Answer: The TGI was 3.93 µM.

Question: And the GI50 (HL-60(TB) leukemia)?
Answer: The GI50 was 2.37 µM.

Question: And the TGI (HL-60(TB) leukemia)?
Answer: The TGI was 5.82 µM.

Question: What about the GI50 (SNB-19 CNS) of the same molecule?
Answer: The GI50 was 1.8 µM.

Question: And the TGI (SNB-19 CNS)?
Answer: Its TGI is 3.33 µM.

Question: What about the GI50 (HS 578T breast) of the same molecule?
Answer: Its GI50 is 2.36 µM.

Question: What about the TGI (HS 578T breast) of the same molecule?
Answer: The TGI was 6.55 µM.

Question: What about the GI50 (HOP-92 NSCLC) of the same molecule?
Answer: Its GI50 is 4.5 µM.

Question: What about the TGI (HOP-92 NSCLC) of the same molecule?
Answer: The TGI was 21.4 µM.

Question: And the GI50 (K-562 leukemia)?
Answer: The GI50 was 2.81 µM.

Question: What about the TGI (K-562 leukemia) of the same molecule?
Answer: Its TGI is greater than 100 µM.

Question: And the GI50 (EKVX NSCLC)?
Answer: Its GI50 is 2.63 µM.

Question: And the TGI (EKVX NSCLC)?
Answer: The TGI was 10.2 µM.

Question: For `CCc1nc(-n2c(CC)nc3ccccc3c2=O)nc(N)c1-c1ccc(Cl)cc1`, which GI50 (MDA-MB-231 breast) is on record?
Answer: Its GI50 is greater than 100 µM.

Question: What about the TGI (MDA-MB-231 breast) of the same molecule?
Answer: Its TGI is greater than 100 µM.

Question: And the GI50 (RPMI-8226 leukemia)?
Answer: The GI50 was 1.24 µM.

Question: What about the TGI (RPMI-8226 leukemia) of the same molecule?
Answer: The TGI was greater than 32 µM.

Question: What about the GI50 (T-47D breast) of the same molecule?
Answer: The GI50 was greater than 60.4 µM.

Question: And the TGI (T-47D breast)?
Answer: Its TGI is greater than 100 µM.

Question: What about the GI50 (HOP-62 NSCLC) of the same molecule?
Answer: Its GI50 is 44.8 µM.

Question: And the TGI (HOP-62 NSCLC)?
Answer: The TGI was greater than 100 µM.

Question: And the GI50 (HL-60(TB) leukemia)?
Answer: The GI50 was greater than 100 µM.

Question: What about the TGI (HL-60(TB) leukemia) of the same molecule?
Answer: Its TGI is greater than 100 µM.

Question: And the GI50 (SNB-19 CNS)?
Answer: The GI50 was greater than 81.1 µM.

Question: What about the TGI (SNB-19 CNS) of the same molecule?
Answer: The TGI was greater than 100 µM.

Question: And the GI50 (HS 578T breast)?
Answer: Its GI50 is 48.4 µM.

Question: And the TGI (HS 578T breast)?
Answer: The TGI was greater than 100 µM.

Question: What about the GI50 (HOP-92 NSCLC) of the same molecule?
Answer: The GI50 was 18 µM.

Question: And the TGI (HOP-92 NSCLC)?
Answer: Its TGI is 99.9 µM.

Question: And the GI50 (K-562 leukemia)?
Answer: Its GI50 is 17.6 µM.

Question: What about the TGI (K-562 leukemia) of the same molecule?
Answer: The TGI was greater than 100 µM.

Question: What about the GI50 (EKVX NSCLC) of the same molecule?
Answer: Its GI50 is 99 µM.

Question: And the TGI (EKVX NSCLC)?
Answer: The TGI was greater than 100 µM.

Question: What does the source list for `O=c1c2[nH]c3ccccc3c2nc2n1CCS2`?
Answer: GI50 (MDA-MB-231 breast): > 100 µM; TGI (MDA-MB-231 breast): > 100 µM; GI50 (RPMI-8226 leukemia): > 100 µM; TGI (RPMI-8226 leukemia): > 100 µM; GI50 (T-47D breast): > 100 µM; TGI (T-47D breast): > 100 µM; GI50 (HOP-62 NSCLC): > 100 µM; TGI (HOP-62 NSCLC): > 100 µM; GI50 (HL-60(TB) leukemia): 17.5 µM; TGI (HL-60(TB) leukemia): > 100 µM; GI50 (SNB-19 CNS): > 100 µM; TGI (SNB-19 CNS): > 100 µM; GI50 (HS 578T breast): 26.9 µM; TGI (HS 578T breast): > 100 µM; GI50 (HOP-92 NSCLC): 4.25 µM; TGI (HOP-92 NSCLC): > 100 µM; GI50 (K-562 leukemia): > 100 µM; TGI (K-562 leukemia): > 100 µM; GI50 (EKVX NSCLC): 23.6 µM; TGI (EKVX NSCLC): > 100 µM

Question: Which TGI (MDA-MB-231 breast) does the source give for `[C-]#[O+].[C-]#[O+].[Ir].[O-]c1ccc2ccccc2c1N=Nc1ccccc1` here?
Answer: Its TGI is 40.7 µM.

Question: What about the TGI (RPMI-8226 leukemia) of the same molecule?
Answer: Its TGI is 45.2 µM.

Question: What about the GI50 (T-47D breast) of the same molecule?
Answer: The GI50 was 11.9 µM.

Question: And the TGI (T-47D breast)?
Answer: The TGI was 33.5 µM.

Question: What about the TGI (HOP-62 NSCLC) of the same molecule?
Answer: Its TGI is greater than 100 µM.

Question: What about the TGI (HL-60(TB) leukemia) of the same molecule?
Answer: Its TGI is 7.76 µM.

Question: What about the TGI (SNB-19 CNS) of the same molecule?
Answer: Its TGI is greater than 70.7 µM.

Question: What about the TGI (HS 578T breast) of the same molecule?
Answer: The TGI was greater than 100 µM.

Question: And the TGI (HOP-92 NSCLC)?
Answer: The TGI was 32.4 µM.

Question: And the TGI (K-562 leukemia)?
Answer: Its TGI is 80.4 µM.

Question: What about the GI50 (EKVX NSCLC) of the same molecule?
Answer: Its GI50 is 19.4 µM.

Question: What about the TGI (EKVX NSCLC) of the same molecule?
Answer: The TGI was 49.1 µM.

Question: For `COc1ccc2[nH]c3c(C)c4cc[n+](C)cc4c(C)c3c2c1`, which GI50 (MDA-MB-231 breast) is on record?
Answer: The GI50 was 6.34 µM and 1.89 µM and 7.41 µM.

Question: What about the TGI (MDA-MB-231 breast) of the same molecule?
Answer: The TGI was 53 µM and 133 µM.

Question: And the GI50 (T-47D breast)?
Answer: The GI50 was 0.88 µM and 0.257 µM and 1.03 µM.

Question: What about the TGI (T-47D breast) of the same molecule?
Answer: Its TGI is 12.6 µM and 3.63 µM and 11.2 µM.

Question: What about the GI50 (HOP-62 NSCLC) of the same molecule?
Answer: Its GI50 is 0.311 µM and 0.24 µM.

Question: And the TGI (HOP-62 NSCLC)?
Answer: Its TGI is 2.24 µM [middle of 4 runs].

Question: And the GI50 (HL-60(TB) leukemia)?
Answer: The GI50 was 8.31 µM and 9.67 µM.

Question: What about the GI50 (SNB-19 CNS) of the same molecule?
Answer: Its GI50 is 0.103 µM and 0.322 µM.

Question: What about the TGI (SNB-19 CNS) of the same molecule?
Answer: The TGI was 1.04 µM [middle of 4 runs].

Question: What about the TGI (HS 578T breast) of the same molecule?
Answer: Its TGI is 1.13 µM and 0.759 µM.

Question: And the GI50 (HOP-92 NSCLC)?
Answer: Its GI50 is 0.239 µM and 1.55 µM.

Question: And the GI50 (K-562 leukemia)?
Answer: The GI50 was 2 µM [middle of 4 runs].

Question: And the GI50 (EKVX NSCLC)?
Answer: The GI50 was 0.63 µM.

Question: What does the source list for `Cc1cc(Nc2cc(CN3CCOCC3)c3nc(C)c(Cc4ccc(Cl)cc4F)n3n2)n[nH]1`?
Answer: GI50 (MDA-MB-231 breast): 1.57 µM; TGI (MDA-MB-231 breast): 5.65 µM; GI50 (RPMI-8226 leukemia): 1.88 µM; TGI (RPMI-8226 leukemia): 14.8 µM; GI50 (T-47D breast): 1.23 µM; TGI (T-47D breast): 16.2 µM; GI50 (HOP-62 NSCLC): 1.84 µM; TGI (HOP-62 NSCLC): 9.49 µM; GI50 (HL-60(TB) leukemia): 0.768 µM; TGI (HL-60(TB) leukemia): 2.86 µM; GI50 (SNB-19 CNS): 6.31 µM; TGI (SNB-19 CNS): 19 µM; GI50 (HS 578T breast): 0.915 µM; TGI (HS 578T breast): 5.6 µM; GI50 (HOP-92 NSCLC): 1.65 µM; TGI (HOP-92 NSCLC): 5.01 µM; GI50 (K-562 leukemia): 0.473 µM; TGI (K-562 leukemia): 13.6 µM

Question: How did the GI50 (MDA-MB-231 breast) turn out when `COc1cc(OC)cc(-c2ccc(-c3ccc(C(=N)N)s3)s2)c1` was run?
Answer: Its GI50 is 0.8 µM.

Question: And the TGI (MDA-MB-231 breast)?
Answer: Its TGI is 2.62 µM.

Question: What about the GI50 (RPMI-8226 leukemia) of the same molecule?
Answer: The GI50 was 0.286 µM and 0.218 µM.

Question: What about the TGI (RPMI-8226 leukemia) of the same molecule?
Answer: Its TGI is 0.866 µM and 0.483 µM.

Question: And the GI50 (T-47D breast)?
Answer: Its GI50 is 1.36 µM.

Question: What about the TGI (T-47D breast) of the same molecule?
Answer: Its TGI is 3.15 µM.

Question: What about the GI50 (HOP-62 NSCLC) of the same molecule?
Answer: The GI50 was 1.81 µM.

Question: And the TGI (HOP-62 NSCLC)?
Answer: Its TGI is 3.47 µM.

Question: What about the GI50 (HL-60(TB) leukemia) of the same molecule?
Answer: The GI50 was 1.23 µM and 0.174 µM.

Question: What about the TGI (HL-60(TB) leukemia) of the same molecule?
Answer: The TGI was 2.74 µM and 0.374 µM.

Question: What about the GI50 (SNB-19 CNS) of the same molecule?
Answer: Its GI50 is 1.72 µM.

Question: And the TGI (SNB-19 CNS)?
Answer: Its TGI is 3.69 µM.

Question: What about the GI50 (HS 578T breast) of the same molecule?
Answer: Its GI50 is 1.35 µM.

Question: What about the TGI (HS 578T breast) of the same molecule?
Answer: The TGI was 3.22 µM.

Question: What about the GI50 (HOP-92 NSCLC) of the same molecule?
Answer: The GI50 was 0.883 µM and 0.528 µM.

Question: What about the TGI (HOP-92 NSCLC) of the same molecule?
Answer: The TGI was 2.39 µM and 2.1 µM.

Question: And the GI50 (K-562 leukemia)?
Answer: The GI50 was 0.346 µM and 0.178 µM.

Question: And the TGI (K-562 leukemia)?
Answer: The TGI was 1.11 µM and 0.441 µM.
